Consider six compounds from patent US6063819A (priority 1998, dated 2000).

Molecules are shown by their SMILES. “Also recorded” adds a separate entry of the source. Read-outs that look alike come from different tables or passages of the source.

What is called EC50 is the concentration at which the effect is half-maximal. The term IC50 denotes the point on the concentration scale where inhibition reaches its midpoint. What is called LD50 is the dose expected to kill half of the subjects tested.

For data set [1], the system named is neurons of the CA1 region of the hippocampus. Put plainly: Hippocampal slice assay: protection of CA1 neurons against hypoxic injury (recovery of population spike). The format is cell-based, male Sprague-Dawley rats. Conditions: for EC50: Rattus norvegicus, Neuron, 1 h, 50% recovery 60 minutes after hypoxia; for relative potency in hippocampal slices: comparison CYP-PA2 with CYP-PA1, or CYP-PA2X with CYP-PA2. The protocol:
(2) Additional in vitro tests involving perfused slices of hippocampal tissue from the brains of sacrificed rats, as described in Example 8. Various poly-guanidino candidates with good combinations of N-channel and P/Q-channel blocking potency (as shown in the ligand blocking assays of Example 7) were tested to determine their ability to protect hippocampal neurons against damage during and after a period of tissue hypoxia.
The ability of CYP-PA1 and CYP-PA2 to protect against hypoxic injury in neurons of the CA1 region of the hippocampus was examined, using an assay which involves intact tissue sections taken from the hippocampal regions of rat brains. To carry out these assays, male Sprague-Dawley rats were briefly anesthetized with halothane and decapitated. Brains were quickly removed and placed in cold artificial cerebral spinal fluid (ACSF) for one minute. ACSF was composed of (in mM): NaCl, 126; KCl, 4; KH2 PO4, 1.4; MgSO4, 1.3; CaCl2, 2.4; NaHCO3, 26; and glucose, 4; pH 7.4, saturated with 95% O2, 5% CO2. Hippocampi were dissected free from the brains, and cut into 475 μm transverse sections (also called slices). The slices were placed in paired recording wells perfused with ACSF maintained at 37° C. Several hippocampal slices were placed in each recording well.
One hour after placement of the tissue slices into recording wells, the orthodromic CA1 population spike (PS) was measured. This indicator of synaptic and neuronal cell body function was elicited by stimulation with a twisted bipolar electrode placed over the CA3 Schaffer collaterals. Responses were recorded in the pyramidal layer of CA1, using a tungsten electrode. Strengths of currents and recording electrode depth were adjusted to obtain maximal amplitude of the CA1 PS. Only slices having an orthodromic CA1 PS of 3 mV or greater on initial assessment were used for further testing.
One tissue slice in each well was given orthodromic stimulation every 30 seconds throughout the experiment, in order to monitor evoked response activity. These slices were designated as "stimulated slices." In general, periodic stimulation provides an even more rigorous test of neuroprotective ability, since the repeated stimulation forces neurons to use up their metabolic resources after each impulse, to reestablish a polarized and ready-to-fire status.
For the remaining slices in each well, orthodromic and antidromic PS amplitude was assessed at the beginning and end of each experiment, without any periodic stimulation. These slices were designated as "unstimulated slices."
All slices were subjected to hypoxia by changing the perfusion medium to oxygen-devoid ACSF saturated with 95% N2, 5% CO2. Slices in one recording well additionally received exposure to various concentrations of the poly-guanidino compounds discussed above, added directly into the perfusion ACSF. Hypoxic duration was continued until 5 minutes after the disappearance of the hypoxic injury potential (Fairchild et al 1988) in the unmedicated stimulated slice. Final recovery was assessed 60 minutes after returning to oxygenated conditions. Exposure to the poly-guanidino compounds began 30 minutes prior to hypoxia and continued through the first 15 minutes of recovery.

Data set [2] concerns neurons in CA1 and CA2 fields of the hippocampus and in the subiculum. Nature of the data set: In vivo protection against global brain ischemia (bilateral carotid occlusion, gerbils). Also on record: species or system Adult male Mongolian gerbils. Conditions: for protection against ischemia: gerbils, IP; for median number of visibly damaged neurons, CA2: saline controls 23.9; for median number of visibly damaged neurons, Subiculum: saline controls 214.0; for median number of visibly damaged neurons, CA1: saline controls 235.5. The protocol:
Adult male Mongolian gerbils, 50 to 60 grams body weight, were put under methoxyflurane anesthesia and surgically subjected to reversible bilateral carotid occlusion for 5 minutes, using published methods (Wasterlain et al 1996). Occlusion was produced by exposure of both common carotid arteries via a ventral midline incision, isolation of the carotids with 4-0 silk suture, and application of microaneurysm clips. After five minutes of occlusion, the clips were removed, and the incision was closed. Body temperature was maintained at 37° C. throughout the surgical and recovery periods.
Blockage of both common carotids generates global brain ischemia in most gerbils. However, some gerbils contain a vascular structure at the base of the brain which resembles the Circle of Willis in humans, which allows some commingling of oxygenated blood from the carotid and vertebral arteries. Accordingly, the surgical method of generating global ischemia in gerbils by clamping flow through the carotids is not completely reliable in all test animals. To overcome this problem, a sufficient number of gerbils must be treated and tested to ensure statistically significant and reliable results.
A solution containing the test compound (or saline, as a control) was administered at the dosage and time described below, via intraperitoneal (IP) injection. The gerbils were sacrificed 72 hours later, and the brains were perfusion-fixed with paraformaldehyde. Serial sections of the brain were cut and stained with hematoxylin and eosin, and quantitative cell counts of live and dead neurons in the CA1 and CA2 fields of the hippocampus and in the subiculum were made, using both light and fluorescence microscopy. Evaluation of neuronal damage in other brain regions was also made on a semi-quantitative scale, and statistical analysis was performed on all damage scores (non-paired Student's T test).
The in vivo tests involving the CYP-PA2 compound used two different dosage regimens. One set of test animals received two injections: 30 mg/kg, at 30 minutes prior to the start of ischemia, and another 30 mg/kg at 90 minutes after the termination of ischemia. […] This neuroprotective activity was statistically significant at higher than the 95% level. A second set of test animals received a smaller dosage (10 mg/kg) of CYP-PA2, in a single injection 30 minutes before the onset of ischemia.
Tests on the CYP-PA1 compound used three different dosage levels: 7.5 mg/kg, injected 30 minutes before occlusion began; 20 mg/kg, injected 30 minutes before occlusion began; and 20 mg/kg, injected 30 minutes after occlusion was terminated.
The values reported in Table 3 are median numbers of visibly damaged neurons, counted in a single entire tissue slice.

A further data set deals with L-type calcium channels. Nature of the data set: Competitive inhibition of 3H-PN200-110 (or 3H-nitrendipine) binding to L-type calcium channels, rat brain neuronal membranes. Conditions: Table 1.
Data set [3] can be described thus: LD50 toxicity test, intraperitoneal injection in mice. Conditions: for LD50: mouse, in vivo, ip. Format: in vivo. Here is the method:
At roughly the same time as the hippocampal tissue tests were being carried out, various polyamine compounds were also tested in toxicity tests, using conventional LD50 tests in mice. […] According, subsequent in vivo tests focused mainly on the CYP-PA1 compound.
These tests used intraperitoneal (IP) injection in mice.

The subject of another data set is L-type channels. The settings on record: background; cited from earlier work.
Another data set relates to T channels. Conditions: background; cited from earlier work.
Setting [4] is: stimulated slices, antidromic, read-out: EC50, antidromic PS amplitude, stimulated slices.
Where [5] appears, read: stimulated slices, orthodromic, read-out: EC50, orthodromic PS amplitude, stimulated slices.
The mark [6] stands for this setting: unstimulated slices, antidromic, read-out: EC50, antidromic PS amplitude, unstimulated slices.
[7] abbreviates: unstimulated slices, orthodromic, read-out: EC50, orthodromic PS amplitude, unstimulated slices.
[8] abbreviates: 20 mg/kg IP post (30 minutes after occlusion terminated).

`N=C(N)NCCC[C@H](NC(=O)[C@@H](N)CCCNC(=N)N)C(=O)NCCN(CCNC(=O)[C@H](CCCNC(=N)N)NC(=O)[C@@H](N)CCCNC(=N)N)CCNC(=O)[C@H](CCCNC(=N)N)NC(=O)[C@@H](N)CCCNC(=N)N` [CYP-PA2, Tris(arginyl-arginyl-2-aminoethyl)amine]: the “neuroprotective activity in hippocampal slices” value in data set [1] is on record as “substantial neuroprotective activity; also recorded: potent neuroprotective benefits”. For the same compound, the EC50 worked out at 42 µM in data set [1] (setting [4]), 43 µM in data set [1] (setting [5]), 37 µM in data set [1] (setting [6]) and 38 µM in data set [1] (setting [7]). Moreover, the “relative potency in hippocampal slices” value in data set [1] is given as “somewhat more potent than the tri-arginine compound, CYP-PA1”. The “statistical significance of reduction of neuronal damage” value in data set [2] (10 mg/kg IP single injection) is listed as “did not reach the 95% confidence level”. In addition, in data set [2] (10 mg/kg IP single injection 30 minutes before ischemia, untreated control 74.6%), the neurons damaged is reported as 56.1%. For the same compound, the “neurons showing visible damage” value in data set [2] (2 x 30 mg/kg IP, 30 minutes before and 90 minutes after ischemia, untreated control 74.6%) is reported as 40.9%. The “statistical significance of neuroprotective activity” value in data set [2] (2 x 30 mg/kg IP, confidence level) was more than 95%. Also, in data set [2], the “protection against ischemia” value is “good neuroprotective activity; also recorded: substantial and beneficial protection against actual ischemia”. For the same compound, the IC50 at L-type calcium channels is more than 100 µM. In addition, the LD50 in data set [3] (read-out: LD50) is approximately 125 mg/kg; in data set [3] (read-out: LD50 level), 125 mg/kg.
Consider `N=C(N)NCCC[C@H](N)C(=O)NCCN(CCNC(=O)[C@@H](N)CCCNC(=N)N)CCNC(=O)[C@@H](N)CCCNC(=N)N` [CYP-PA1, tris(arginyl-2-aminoethyl)amine], for which, in data set [1], the “neuroprotective activity in hippocampal slices” value is recorded as “substantial neuroprotective activity”. The EC50 in data set [1] (setting [4]) is 95 µM; in data set [1] (setting [5]) it was 97 µM; in data set [1] (setting [6]) it was 87 µM; in data set [1] (setting [7]), 90 µM. In addition, the “median number of visibly damaged neurons, CA2” value came out at 15.2 in data set [2] (7.5 mg/kg IP pre-occlusion), 14.7 in data set [2] (setting [8]) and 10.4 in data set [2] (20 mg/kg IP pre-occlusion). For the same compound, the entries for the “median number of visibly damaged neurons, Subiculum” value in data set [2] (7.5 mg/kg IP pre-occlusion), in data set [2] (setting [8]) and in data set [2] (20 mg/kg IP pre-occlusion) were 91.5, 31.0 and 38.5, respectively. For the same compound, the “median number of visibly damaged neurons, CA1” value in data set [2] (7.5 mg/kg IP pre-occlusion) is 37.5; in data set [2] (setting [8]), 14.5; in data set [2] (20 mg/kg IP pre-occlusion) it was 18.0. For the same compound, in data set [2] (CA2 region), the “significance of reduction in neuronal damage, CA2” value is recorded as “did not rise to the level of significance at the 95% confidence level”. Moreover, the “number of injured neurons vs saline-treated controls” value in data set [2] (all treatment dosages) is on record as “substantially reduced”. Also, the “protection against ischemia” value in data set [2] is “quite substantial and beneficial; also recorded: substantial and beneficial protection against actual ischemia”. For the same compound, the “significance level of reduction in neuronal damage, subiculum and CA1” value in data set [2] (subiculum and CA1 regions) was not below 98%. Besides, on L-type calcium channels, the IC50 was more than 300 µM. In addition, the “toxicity: lethal or other adverse effects” value in data set [3] (IP, even at highest dosage tested (200 mg/kg)) was “no detectable lethal or other adverse effects; also recorded: completely free of any toxicity concerns”.
For `Fc1ccc(C(c2ccc(F)cc2)N2CCN(C/C=C/c3ccccc3)CC2)cc1` [flunarizine], in the data set with L-type channels, the “binding to L-type channels” value is reported as “bind to L-type channels”. Moreover, the “binding to T channels” value in the data set on T channels was “not to T or N channels”.
For `N=C(N)NCCC[C@H](NC(=O)[C@@H](N)CCCNC(=N)N)C(=O)NCCN(CCN)CCNC(=O)[C@H](CCCNC(=N)N)NC(=O)[C@@H](N)CCCNC(=N)N` [CYP-PA2X], in data set [1], the “relative potency in hippocampal slices” value is reported as “not as potent as the fully di-arginylated compound CYP-PA2”.
Consider `COC(=O)C1=C(C)NC(C)=C(C(=O)OC)C1c1ccccc1[N+](=O)[O-]` [nifedipine], for which the “binding to L-type channels” value in the data set on L-type channels is on record as “bind to L-type channels”. The “binding to T channels” value with T channels was “not to T or N channels”.
Regarding `COC(=O)C1=C(C)NC(C)=C(C(=O)OCCN(C)Cc2ccccc2)C1c1cccc([N+](=O)[O-])c1` (centres unmarked) [nicardipine], in the data set with L-type channels, the “binding to L-type channels” value was “bind to L-type channels”. Moreover, the “binding to T channels” value in the data set with T channels is “not to T or N channels”.
